The values that follow come from patent US20190086390A1, “INDIRECT ASSESSMENT OF INSULIN RELEASE IN A CELL” (Board of Supervisors of Louisiana State University and …, priority 2016, published 2019).

Each structure is given as a SMILES string. Entries after “also recorded” stand apart in the source; their conditions may differ.

Assay [1] has as its system 832/13 cells. As to the kind of experiment: Nitrite accumulation in culture media, Griess assay. It counts as cell-based, rat. To be noted: 832/13 cells, 1 ng/ml IL-1β 18 h. The method, then:
(§1) Nitrite in the cell culture media was measured as an index of NO production using the Griess assay kit (Promega, Madison, Wis.), whereas cellular reduction of the 3-(4,5-dimethylthiazol-2-yl)-5-(3-carboxymethoxyphenyl)-2-(4-sulfophe-nyl)-2H-tetrazohum, inner salt (MTS) dye was determined using the MTS 1 solution kit (Promega) according to the manufacturer's protocol.
(In general: Griess reagent forms a coloured azo dye with nitrite.)

Assay [2] has as its system 832/13 cells. Put plainly: MTS dye reduction assay. It counts as cell-based, rat. To be noted: 1 ng/ml IL-1β + 1 mM I-NMMA, 18 h. The method, then:
as §1

The test system of assay [3] is 832/13 cells. Put plainly: Glucose-stimulated insulin secretion (GSIS) in 832/13 cells, insulin ELISA. It counts as cell-based, rat. The method, then: 832/13 cells were grown in 12-well plates and treated as indicated. Glucose-stimulated insulin secretion (GSIS) assays were performed as described previously (29). Insulin secretion by cell lines into the media was measured using either the High Range Rat Insulin ELISA kit (Mercodia, Uppsala, Sweden) or by rat islets using the insulin radioimmunoassay (Siemens, Malvern, Pa.) according to the company directions. In addition, cells were lysed using M-PER lysis reagent (Thermo Fisher Scientific) to quantify total intracellular protein content via BCA assay (Thermo Fisher Scientific). Insulin secretion data were normalized to total protein to account for any differences in cell number between treatment groups. Incorporation of tritiated thymidine into DNA as a cellular index of proliferation was carried out as described (45).

Assay [4] concerns 832/13 cells. Put plainly: Live cell calcium imaging, glucose-induced calcium response (Calcium Green). It counts as cell-based, rat. The method, then:
832/13 cells were plated into six-well plates containing poly-d-lysine-coated coverslips (Neuvitro, Vancouver, Wash.). At 50% confluence, cells were treated for 18 h with one of four experimental groups: 1 ng/ml […] alone, 1 mM I-NMMA alone, IL-1β+ I-NMMA, or normal growth media. Immediately prior to imaging, cells were preloaded with Calcium Green 1 AM (CG, C3012; Life Technologies) by transferring coverslips to a solution of 10|×M CG in 20% Pluronic F127 in DMSO (Life Technologies) made up in carbogenated (95% 02-5% C02) normal Krebs. The recipe for normal Krebs solution was (in mM) 124 NaCl, 25 NaHC03, 2 glucose, 3 KC1, 2 CaCl2, 1.5 NaH2P04, and 1 MgS04-7H20, which corrected to pH 7.4 with HCl. After incubation in the CG solution for 30 min, coverslips were transferred to carbogenated normal Krebs at 29° C.
Coverslips were transferred to a recording chamber on a fixed stage Zeiss Axioskop2 microscope equipped with a Perkin Elmer Ultra-view/Yokogawa C10 spinning disk laser confocal illuminator. Cells were illuminated with the 488 nm laser; CG-calcium fluorescence signals were collected at 509 nm. Cells were visualized with a X40 water immersion objective. Images were collected with a Hammamatsu Ocra-ER charge-coupled device camera. The confocal system, including image collection, was controlled by Perkin-Elmer Improvision software.
Cells on coverslips were constantly perfused with normal Krebs solution at 29° C. at a rate of 3 ml/min. After 10 min, the perfusion solution was switched to one containing 12 mM glucose and proportionally less sodium chloride to maintain osmolality. The 12 mM glucose challenge was applied for 5 min, followed by a 5 min washout period. Images of CG-labeled cells were collected continuously during the challenge period at a rate of 20/min, with each frame taking 1 s. Images were collected as TIFF stacks and processed using Nikon Elements AR software. Individual cells in the field were designated as regions of interest (ROI), and their fluorescence signal over time was captured. Background fluorescence was subtracted from the fluorescence signal of individual ROIs. The relative changes in cytoplasmic calcium in the cells were expressed as changes in fluorescence [(AF/F) %], where F is the intensity of the baseline fluorescence signal before stimulation and AF is the difference between the peak fluorescence intensity and the baseline signal. Therefore, magnitude of response was normalized for each individual ROI.

The test system of the next assay is CCL20. As to the kind of experiment: CCL20 secretion into media of 832/13 cells, ELISA. To be noted: 1 ng/ml IL-1β + 1 mM I-NMMA, 6 h. It counts as cell-based, rat. On the procedure:
(§2) 832/13 cells were grown in 12-well plates and treated as indicated. RPMI was supplemented with 0.3% BSA, and media were collected at the indicated time points. In addition, the cells were lysed using M-PER lysis reagent (Thermo Fisher Scientific) to quantify total intracellular protein content. CCL2 and CCL20 secretion into the media was measured by CCL2 Quantikine ELISA kit (R & D Systems, Minneapolis, Minn.) and CCL20 DuoSet ELISA kit (R & D Systems) according to the manufacturer's protocol. ELISA data were normalized to total protein to account for any differences in cell number between treatment groups.
Background: In an ELISA, binding on a coated surface is turned into a signal by an enzyme label.

Another assay concerns CCL2. Put plainly: CCL2 secretion into media of 832/13 cells, ELISA. The assay is classed as cell-based, rat. The following applies: 1 ng/ml IL-1β + 1 mM I-NMMA, 6 h. On the procedure:
as §2

Assay [5] deals with 832/13 cells. As to the kind of experiment: Oxygen consumption rate (Seahorse XF24). To be noted: 1 ng/ml IL-1β + 1 mM I-NMMA, 18 h. The assay is classed as cell-based, rat. The method, then:
Oxygen consumption rates (OCR) were measured using the XF^24 Extracellular Flux Analyzer (Seahorse Bioscience, Chicopee, Mass.). 832/13 cells were grown on cell culture plates for 2 days prior to OCR assays being run. Cells were treated with vehicle, 1 ng/ml IL-β, 1 mM I-NMMA, or both IL-1β (1 ng/ml) plus I-NMMA (1 mM) for 18 h prior to OCR being measured. The oxygen consumption rate was measured over a 2-h period. Data represent the calculated average area under the curve from six wells per treatment group over multiple independent experiments.

For assay [6], the system named is 832/13 cells. Put plainly: Nitric oxide by EPR spectroscopy with (MGD)2Fe2+ spin trap. It counts as cell-based, rat. The following applies: 1 ng/ml IL-1β 18 h. On the procedure: The spin trap Af-methyl-d-glucamine dithiocarbamate-iron complex [(MGD)2-Fe^2+] was prepared fresh in each experiment by making stock solutions of 500 mM MGD and 100 mM Fe^2+ (from FeS04.7 H20) in ultrapure water under anaerobic conditions. A final concentration of 25 mM MGD and 5 mM Fe^2+ was introduced onto cells in culture using serum-free media with a 30-min incubation period. Supernatants were then collected for the measurements of the (MGD)2-iron-NO complex. All electron paramagnetic resonance (EPR) measurements were carried out in a quartz flat cell at room temperature. Samples were transferred directly into the flat cell, which was then placed into the cavity of a Bruker EMX Plus spectroscope. Typical instrumental conditions were as follows: 20 mW of microwave power, 5.0-G modulation amplitude, 1×10^5 gain, 0.163-s time constant, and 80-G scan range. Quantitation was carried out by measuring and comparing the first peak heights on the spectra.

The test system of assay [7] is islets isolated from ZDF rats. To be noted: islets from ZDF rats and clonal cells cultured in lipids; cited from earlier work.
[8] abbreviates: pretreated 18 h with I-NMMA plus IL-1β, 12 mM glucose.

`CNC(=N)NCCC[C@H](N)C(=O)O` [I-NMMA, N^G-monomethyl-L-arginine, reference compound]: the “IL-1β-induced nitrite production in presence of inhibitor” value in the assay on 832/13 cells [1] is “completely inhibited”. In the assay on 832/13 cells [2], the “IL-1β-induced decrease in MTS reduction with NOS inhibitor” value is “fully recovered”. Also, the “recovery of insulin secretion” value in the assay on 832/13 cells [3] (IL-1β 1 ng/ml + I-NMMA 1 mM, 18 h) is “almost complete recovery”. The “IL-1β-reduced change in intracellular calcium with NOS inhibitor” value in the assay on 832/13 cells [4] (1 mM I-NMMA) was “completely prevented”. In addition, in the assay with 832/13 cells [4] (setting [8]), the “magnitude of the response” value was 30% and the “number of responsive cells” value is on record as 89%. In addition, in the assay with 832/13 cells [4] (pretreated with I-NMMA alone), the “responders and response magnitude relative to control pretreatment” value was “differed neither in the number of responders nor in the magnitude of the responses”. The “IL-1β-induced CCL20 secretion with NOS inhibitor” value with CCL20 is recorded as “not impacted”. The “IL-1β-induced synthesis and secretion of CCL2 with NOS inhibitor” value in the assay with CCL2 was “not altered”. Moreover, in the assay on 832/13 cells [5], the “IL-1β-induced decrease in oxygen consumption rate with NOS inhibitor” value was “prevented”. Besides, in the assay on 832/13 cells [6], the “IL-1β-induced nitric oxide production in presence of inhibitor” value was “lack of IL-Iβ-mediated elevations in nitric oxide formation”.
Take `COC(=O)CC(O)C(=O)OC` (stereo not shown) [dimethyl malate, reference compound]: the insulin secretion result in assay [7] was “improves insulin secretion”. Moreover, the “recovery of insulin secretion” value in the assay on 832/13 cells [3] (IL-1β 18 h, 10 uM DMM during final 2 h) is listed as “could be recovered; also recorded: enhanced insulin secretion”.
